target: recombinant human UAE (Homo sapiens (Human), UniProt P22314); assay: Ubiquitin Activating Enzyme (UAE) HTRF Assay; conditions: read-out: % inhibition @0.111 μM
Sequence (P22314 whole entry): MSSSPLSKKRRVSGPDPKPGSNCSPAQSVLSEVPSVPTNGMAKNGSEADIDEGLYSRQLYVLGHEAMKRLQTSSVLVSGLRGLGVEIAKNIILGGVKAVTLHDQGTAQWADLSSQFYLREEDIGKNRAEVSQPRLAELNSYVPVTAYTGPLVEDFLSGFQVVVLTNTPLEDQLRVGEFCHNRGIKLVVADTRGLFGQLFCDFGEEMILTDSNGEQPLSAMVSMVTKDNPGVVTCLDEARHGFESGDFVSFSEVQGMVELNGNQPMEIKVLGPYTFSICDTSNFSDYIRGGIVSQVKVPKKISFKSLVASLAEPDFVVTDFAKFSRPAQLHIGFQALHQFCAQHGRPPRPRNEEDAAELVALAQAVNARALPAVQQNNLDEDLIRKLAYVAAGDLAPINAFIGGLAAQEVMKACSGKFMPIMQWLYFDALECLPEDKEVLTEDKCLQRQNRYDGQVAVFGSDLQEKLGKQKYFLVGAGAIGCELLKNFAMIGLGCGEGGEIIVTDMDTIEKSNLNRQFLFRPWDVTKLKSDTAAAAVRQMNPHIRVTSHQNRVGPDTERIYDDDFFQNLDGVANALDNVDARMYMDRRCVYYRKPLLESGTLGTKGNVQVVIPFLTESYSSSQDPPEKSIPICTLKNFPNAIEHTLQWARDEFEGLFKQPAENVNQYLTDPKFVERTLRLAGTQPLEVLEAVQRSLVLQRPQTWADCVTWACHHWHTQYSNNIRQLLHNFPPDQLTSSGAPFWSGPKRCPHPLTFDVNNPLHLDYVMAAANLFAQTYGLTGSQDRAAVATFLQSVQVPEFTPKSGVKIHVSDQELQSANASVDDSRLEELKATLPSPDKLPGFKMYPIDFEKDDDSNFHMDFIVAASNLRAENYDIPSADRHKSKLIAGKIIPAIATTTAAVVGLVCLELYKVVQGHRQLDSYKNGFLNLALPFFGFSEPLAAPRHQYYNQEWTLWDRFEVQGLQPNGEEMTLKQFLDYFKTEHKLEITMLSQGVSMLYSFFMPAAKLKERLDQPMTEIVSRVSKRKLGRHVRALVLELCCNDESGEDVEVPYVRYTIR
Protocol: (§1) After incubation for 120 minutes, quantification of the FRET is performed on the Pherostar (BMG).
(§2) For compounds whose values are marked with an asterisk (*), mouse UAE was used. For all other compounds, human UAE was used.

SMILES	inhibition at 0.111 µM [%]
NS(=O)(=O)OC[C@H]1C[C@@H](Nc2ccnc3cc(-c4cccc(Cc5ccccc5)c4)nn23)[C@H](O)[C@@H]1O (relative stereo) [Compound I-069, (rac)-((1R,2R,3S,4R)-4-(2-(3-benzylphenyl)pyrazolo[1,5-a]pyrimidin-7-ylamino)-2,3-dihydroxycyclopentyl)methyl rel-sulfamate]	84
NS(=O)(=O)OC[C@H]1C[C@@H](Nc2ccnc3cc(-c4cccc5[nH]ccc45)nn23)[C@H](O)[C@@H]1O (relative stereo) [Compound I-075, (rac)-((1R,2R,3S,4R)-4-(2-(1H-indol-4-yl)pyrazolo[1,5-a]pyrimidin-7-ylamino)-2,3-dihydroxycyclopentyl)methyl rel-sulfamate]	100
CC1(C)OCc2ccc(-c3cc4nccc(N[C@@H]5C[C@H](COS(N)(=O)=O)[C@@H](O)[C@H]5O)n4n3)cc21 (relative stereo) [Compound I-053, (rac)-((1R,2R,3S,4R)-4-(2-(3,3-dimethyl-1,3-dihydroisobenzofuran-5-yl)pyrazolo[1,5-a]pyrimidin-7-ylamino)-2,3-dihydroxycyclopentyl)methyl rel-sulfamate]	100
NS(=O)(=O)OC[C@H]1C[C@@H](Nc2ccnc3cc(-c4ccc5c(c4)C(=O)c4ccccc4-5)nn23)[C@H](O)[C@@H]1O (relative stereo) [Compound I-085, (rac)-((1R,2R,3S,4R)-2,3-dihydroxy-4-(2-(9-oxo-9H-fluoren-2-yl)pyrazolo[1,5-a]pyrimidin-7-ylamino)cyclopentyl)methyl rel-sulfamate]	99
NS(=O)(=O)OC[C@H]1C[C@@H](Nc2ccnc3cc(-c4cc(C(F)(F)F)ccc4F)nn23)[C@H](O)[C@@H]1O (relative stereo) [Compound I-029, (rac)-((1R,2R,3S,4R)-4-((2-(2-Fluoro-5-(trifluoromethyl)phenyl)pyrazolo[1,5-a]pyrimidin-7-yl)amino)-2,3-dihydroxycyclopentyl)methyl rel-sulfamate]	100
NS(=O)(=O)OC[C@H]1C[C@@H](Nc2ccnc3cc(-c4c[nH]c5ccc(Cl)cc45)nn23)[C@H](O)[C@@H]1O (relative stereo) [Compound I-054, (rac)-[(1R,2R,3S,4R)-4-{[2-(5-chloro-1H-indol-3-yl)pyrazolo[1,5-a]pyrimidin-7-yl]amino}-2,3-dihydroxycyclopentyl]methyl rel-sulfamate]	100
COc1ccc(SC(F)(F)F)cc1-c1cc2nccc(N[C@@H]3C[C@H](COS(N)(=O)=O)[C@@H](O)[C@H]3O)n2n1 [Compound I-120, (s.e.)-((1R,2R,3S,4R)-2,3-dihydroxy-4-(2-(2-methoxy-5-(trifluoromethylthio)-phenyl)pyrazolo[1,5-a]pyrimidin-7-ylamino)cyclopentyl)methyl sulfamate]	100
NS(=O)(=O)OC[C@H]1C[C@@H](Nc2ccnc3cc(-c4ccccc4SC(F)(F)F)nn23)[C@H](O)[C@@H]1O (relative stereo) [Compound I-079, (rac)-((1R,2R,3S,4R)-2,3-dihydroxy-4-(2-(2-(trifluoromethylthio)phenyl)pyrazolo[1,5-a]pyrimidin-7-ylamino)cyclopentyl)methyl rel-sulfamate]	75
NS(=O)(=O)OC[C@H]1C[C@@H](Nc2ccnc3cc(-c4cccc5ccsc45)nn23)[C@H](O)[C@@H]1O (relative stereo) [Compound I-045, (rac)-((1R,2R,3S,4R)-4-((2-(Benzo[b]thiophen-7-yl)pyrazolo[1,5-a]pyrimidin-7-yl)amino)-2,3-dihydroxycyclopentyl)methyl rel-sulfamate]	100

Now from value to molecule:

inhibition at 0.111 µM [%]	SMILES
100	NS(=O)(=O)OC[C@H]1C[C@@H](Nc2ccnc3cc(-c4cccc(SCC5CC5)c4)nn23)[C@H](O)[C@@H]1O (relative stereo) [Compound I-076, (rac)-((1R,2R,3S,4R)-4-(2-(3-(cyclopropylmethylthio)phenyl)pyrazolo[1,5-a]pyrimidin-7-ylamino)-2,3-dihydroxycyclopentyl)methyl rel-sulfamate]
100	CC(C)(c1cccc(-c2cc3nccc(N[C@@H]4C[C@H](COS(N)(=O)=O)[C@@H](O)[C@H]4O)n3n2)c1)C(F)(F)F (relative stereo) [Compound I-058, (rac)-((1R,2R,3S,4R)-2,3-dihydroxy-4-(2-(3-(1,1,1-trifluoro-2-methylpropan-2-yl)phenyl)pyrazolo[1,5-a]pyrimidin-7-ylamino)cyclopentyl)methyl rel-sulfamate]
100	NS(=O)(=O)OC[C@H]1C[C@@H](Nc2ccnc3cc(-c4cccc(SC(F)(F)F)c4)nn23)[C@H](O)[C@@H]1O (relative stereo) [Compound I-044, (rac)-((1R,2R,3S,4R)-2,3-dihydroxy-4-(2-(3-(trifluoromethylthio)phenyl)pyrazolo[1,5-a]pyrimidin-7-ylamino)cyclopentyl)methyl rel-sulfamate]
100	C#Cc1cccc(-c2cc3nccc(N[C@@H]4C[C@H](COS(N)(=O)=O)[C@@H](O)[C@H]4O)n3n2)c1 (relative stereo) [Compound I-083, (rac)-[(1R,2R,3S,4R)-4-{[2-(3-ethynylphenyl)pyrazolo[1,5-a]pyrimidin-7-yl]amino}-2,3-dihydroxycyclopentyl]methyl rel-sulfamate]
100	NS(=O)(=O)OC[C@H]1C[C@@H](Nc2ccnc3cc(-c4cccc(C5=CCCC5)c4)nn23)[C@H](O)[C@@H]1O (relative stereo) [Compound I-047, (rac)-(1R,2R,3S,4R)-4-(2-(3-cyclopentenylphenyl)pyrazolo[1,5-a]pyrimidin-7-ylamino)-2,3-dihydroxycyclopentyl)methyl rel-sulfamate]

target: mouse UAE (Mus musculus (Mouse), UniProt Q02053); assay: Ubiquitin Activating Enzyme (UAE) HTRF Assay; conditions: read-out: % inhibition @0.111 μM
Sequence (Q02053 whole entry): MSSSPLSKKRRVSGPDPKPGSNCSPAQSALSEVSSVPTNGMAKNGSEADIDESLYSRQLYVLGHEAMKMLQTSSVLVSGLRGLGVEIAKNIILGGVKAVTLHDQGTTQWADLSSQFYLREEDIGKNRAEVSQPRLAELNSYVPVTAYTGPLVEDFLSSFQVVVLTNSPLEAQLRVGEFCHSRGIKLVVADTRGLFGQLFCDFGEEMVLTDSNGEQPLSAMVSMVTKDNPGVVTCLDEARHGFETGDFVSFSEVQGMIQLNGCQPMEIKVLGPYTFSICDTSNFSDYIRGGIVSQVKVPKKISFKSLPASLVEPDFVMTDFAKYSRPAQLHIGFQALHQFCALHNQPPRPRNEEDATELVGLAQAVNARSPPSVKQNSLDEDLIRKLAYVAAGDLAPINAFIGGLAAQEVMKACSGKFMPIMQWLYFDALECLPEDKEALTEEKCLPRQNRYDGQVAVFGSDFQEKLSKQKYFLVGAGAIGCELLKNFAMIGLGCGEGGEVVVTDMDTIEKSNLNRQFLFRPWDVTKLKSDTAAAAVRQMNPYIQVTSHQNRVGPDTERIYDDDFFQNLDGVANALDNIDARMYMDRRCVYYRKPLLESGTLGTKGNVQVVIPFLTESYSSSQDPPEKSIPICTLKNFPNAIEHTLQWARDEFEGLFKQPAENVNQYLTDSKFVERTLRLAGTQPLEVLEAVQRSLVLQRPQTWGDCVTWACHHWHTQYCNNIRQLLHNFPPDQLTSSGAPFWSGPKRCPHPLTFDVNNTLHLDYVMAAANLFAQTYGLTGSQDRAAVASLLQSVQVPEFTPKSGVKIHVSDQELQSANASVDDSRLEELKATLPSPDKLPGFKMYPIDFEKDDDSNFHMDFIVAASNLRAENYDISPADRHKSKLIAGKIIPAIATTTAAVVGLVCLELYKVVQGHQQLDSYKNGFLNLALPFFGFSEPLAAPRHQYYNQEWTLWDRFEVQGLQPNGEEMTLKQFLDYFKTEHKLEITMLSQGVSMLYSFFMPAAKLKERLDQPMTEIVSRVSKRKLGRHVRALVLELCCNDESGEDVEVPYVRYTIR
Protocol: as §1, §2

SMILES	inhibition at 0.111 µM [%]
NS(=O)(=O)OC[C@H]1C[C@@H](Nc2ccnc3cc(-c4csc5cc(Cl)ccc45)nn23)[C@H](O)[C@@H]1O (relative stereo) [Compound I-091, (rac)-((1R,2R,3S,4R)-4-(2-(6-chlorobenzo[b]thiophen-3-yl)pyrazolo[1,5-a]pyrimidin-7-ylamino)-2,3-dihydroxycyclopentyl)methyl rel-sulfamate]	100
NS(=O)(=O)OC[C@H]1C[C@@H](Nc2cc(Cl)nc3cc(-c4ccccn4)nn23)[C@H](O)[C@@H]1O (relative stereo) [Compound I-011, (rac)-((1R,2R,3S,4R)-4-(5-chloro-2-(pyridin-2-yl)pyrazolo[1,5-a]pyrimidin-7-ylamino)-2,3-dihydroxycyclopentyl)methyl rel-sulfamate]	49
NS(=O)(=O)OC[C@H]1C[C@@H](Nc2ccnc3cc(-c4cccc5ccccc45)nn23)[C@H](O)[C@@H]1O (relative stereo) [Compound I-002, (rac)-((1R,2R,3S,4R)-2,3-dihydroxy-4-{[2-(1-naphthyl)pyrazolo[1,5-a]pyrimidin-7-yl]amino}cyclopentyl)methyl rel-sulfamate]	100
NS(=O)(=O)OC[C@H]1C[C@@H](Nc2ccnc3cc(-c4ccccn4)nn23)[C@H](O)[C@@H]1O (relative stereo) [Compound I-012, (rac)-[(1R,2R,3S,4R)-2,3-dihydroxy-4-{[2-(pyridin-2-yl)pyrazolo[1,5-a]pyrimidin-7-yl]amino}cyclopentyl]methyl rel-sulfamate]	61

Results, then the molecule that gave them:

inhibition at 0.111 µM [%]	SMILES
100	NS(=O)(=O)OC[C@H]1C[C@@H](Nc2ccnc3cc(-c4cccc(Cl)c4)nn23)[C@H](O)[C@@H]1O (relative stereo) [Compound I-005, (rac)-((1R,2R,3S,4R)-4-((2-(3-Chlorophenyl)pyrazolo[1,5-a]pyrimidin-7-yl)amino)-2,3-dihydroxycyclopentyl)methyl rel-sulfamate]
72	NS(=O)(=O)OC[C@H]1C[C@@H](Nc2ccnc3cc(-c4ccccc4)nn23)[C@H](O)[C@@H]1O (relative stereo) [Compound I-001, (rac)-((1R,2R,3S,4R)-2,3-dihydroxy-4-(2-phenylpyrazolo[1,5-a]pyrimidin-7-ylamino)cyclopentyl)methyl rel-sulfamate]

Reference: patent US10202389B2, “Pyrazolopyrimidinyl inhibitors of ubiquitin-activating enzyme” (Millennium Pharmaceuticals, Inc., priority 2012, dated 2019)
